Patent US9975878B2, “Substituted triazine BMI-1 inhibitors” (PTC Therapeutics, Inc., priority 2013, dated 2018)

Experiments:
Bmi-1 protein = assay: Sandwich ELISA Assay: Bmi-1 protein level in HT-1080 cells treated with test compounds; format: cell-based
Procedure, shortened: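 HT-1080 cells exposed to compounds (final DMSO 0.5%) for 40-48 h at 37° C, 5% CO2, then lysed. Bmi-1 quantified by sandwich ELISA (mouse anti-Bmi-1 capture, rabbit anti-Bmi-1 detection, HRP anti-rabbit, TMB), read at OD450 with OD570 reference, against recombinant GST-Bmi-1 standard curve (0-8000 pg/mL).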

Question: With `Nc1nc(Nc2ccc(OC(F)F)nc2)nc(-n2c(C3CC3)nc3c(F)cc(F)cc32)n1` [Cpd 91, 6-(2-cyclopropyl-4,6-difluoro-1H-benzimidazol-1-yl)-N-[6-(difluoromethoxy)pyridin-3-yl]-1,3,5-triazine-2,4-diamine] as the compound, how does the melting point read?
Answer: 128 to 130 °C

Question: And the EC50 (Bmi-1 protein)?
Answer: 10 to 100 nM

Question: What does the source list for `Nc1nc(Nc2ccc(OC(F)(F)F)cc2)nc(-n2c(C3CC3)nc3c(F)cc(F)cc32)n1` [Cpd 92, 6-(2-cyclopropyl-4,6-difluoro-1H-benzimidazol-1-yl)-N-[4-(trifluoromethoxy)phenyl]-1,3,5-triazine-2,4-diamine]?
Answer: melting point: 213 to 215 °C; EC50 (Bmi-1 protein): 100 to 3000 nM

Question: Which melting point does the source give for `Nc1nc(Nc2ccc(C(F)(F)F)cc2)nc(-n2c(C(F)F)nc3ccccc32)n1` [Cpd 102, 6-[2-(difluoromethyl)-1H-benzimidazol-1-yl]-N-[4-(trifluoromethyl)phenyl]-1,3,5-triazine-2,4-diamine] here?
Answer: 197 to 199 °C

Question: And the EC50 (Bmi-1 protein)?
Answer: 10 to 100 nM

Question: With `Nc1nc(Nc2ccc(OC(F)F)cc2)nc(-n2c(C(F)F)nc3ccccc32)n1` [Cpd 103, N-[4-(difluoromethoxy)phenyl]-6-[2-(difluoromethyl)-1H-benzimidazol-1-yl]-1,3,5-triazine-2,4-diamine] as the compound, how does the melting point read?
Answer: 197 to 199 °C

Question: And the EC50 (Bmi-1 protein)?
Answer: 10 to 100 nM

Question: With `Nc1nc(Nc2ccc(OC(F)F)c(F)c2)nc(-n2c(C(F)F)nc3ccccc32)n1` [Cpd 104, N-[4-(difluoromethoxy)-3-fluorophenyl]-6-[2-(difluoromethyl)-1H-benzimidazol-1-yl]-1,3,5-triazine-2,4-diamine] as the compound, how does the melting point read?
Answer: 201 to 203 °C

Question: What about the EC50 (Bmi-1 protein) of the same compound?
Answer: 10 to 100 nM

Question: Which melting point does the source give for `Nc1nc(Nc2ccc(OC(F)(F)F)cc2)nc(-n2c(C(F)F)nc3ccccc32)n1` [Cpd 106, 6-[2-(difluoromethyl)-1H-benzimidazol-1-yl]-N-[4-(trifluoromethoxy)phenyl]-1,3,5-triazine-2,4-diamine] here?
Answer: 138 to 139 °C

Question: What about the EC50 (Bmi-1 protein) of the same compound?
Answer: 10 to 100 nM

Question: What does the source list for `Nc1nc(Nc2ccc(OC(F)F)cc2)nc(-n2c(CF)nc3ccccc32)n1` [Cpd 108, N-[4-(difluoromethoxy)phenyl]-6-[2-(fluoromethyl)-1H-benzimidazol-1-yl]-1,3,5-triazine-2,4-diamine]?
Answer: melting point: 166 to 168 °C; EC50 (Bmi-1 protein): 10 to 100 nM

Question: What does the source list for `Nc1nc(Nc2ccc(OC(F)F)c(F)c2)nc(-n2c(CF)nc3ccccc32)n1` [Cpd 109, N-[4-(difluoromethoxy)-3-fluorophenyl]-6-[2-(fluoromethyl)-1H-benzimidazol-1-yl]-1,3,5-triazine-2,4-diamine]?
Answer: melting point: 166 to 168 °C; EC50 (Bmi-1 protein): 10 to 100 nM

Question: With `Nc1nc(Nc2ccc(C(F)(F)F)nc2)nc(-n2c(CF)nc3ccccc32)n1` [Cpd 111, 6-[2-(fluoromethyl)-1H-benzimidazol-1-yl]-N-[6-(trifluoromethyl)pyridin-3-yl]-1,3,5-triazine-2,4-diamine] as the compound, how does the melting point read?
Answer: 178 to 180 °C

Question: What about the EC50 (Bmi-1 protein) of the same compound?
Answer: 100 to 3000 nM
